Results reported in patent publication US20250186555A1, “FORMULATIONS COMPRISING ACID-NEUTRALIZING POLYMER FOR ORAL ADMINISTRATION OF GLUCAGON-LIKE PEPTIDE-2” (Entera Bio Ltd., priority 2022, published 2025).
Like-named read-outs stand apart in the source and are kept apart here. One block for each molecule: values may come before it.

Columns and labels:
[1] = cited from earlier work
[2] = pH upon addition of test substance to 0.1 M HCl solution (pH 1.2), simulated gastric fluid, pH meter; format: physicochemical
Description: Test substances were dissolved in various volumes of 0.1 M HCl solution (pH 1.2) at concentrations of 1, 2, 4, 10, 20, 50, 100 and 150 mg/ml. The solution pH was determined using an MP-103 pH-meter (MRC, Israel) equipped with ELC-10-00 electrode (MRC, Israel) or with a thin electrode HI1083 (HANNA instruments Inc.), shortly after dissolution and up to 26 hours later in order to ensure that the pH remained stable. The highest pH value obtained during the experimental time period was recorded in order to compare the acid-neutralizing capacity of each substance.
SNAC and the basic polymers sodium alginate, sodium carboxymethylcellulose in non-crosslinked (Na-CMC) and crosslinked (croscarmellose sodium, CCS) forms, and sodium starch glycolate (SSG) were dissolved in various volumes of 0.1 M HCl solution (pH 1.2) at concentrations of 1, 2, 4, 10, 20, 50, 100 and 150 mg/ml, and the solution pH was determined using an MP-103 pH-meter (MRC, Israel) equipped with ELC-10-00 electrode (MRC, Israel), as described in the Materials and Methods section hereinabove.
In order to obtain a beneficial rise in pH with a reduced loss of the active form of the absorption enhancer, the effect of various concentrations of different polymers containing carboxylate groups (sodium alginate, sodium starch glycolate, sodium carboxymethylcellulose, and croscarmellose sodium) on pH upon addition to a 0.1 M HCl solution (pH 1.2) was also evaluated. FIG. 2A presents pH values determined using an MP-103 pH-meter (MRC, Israel) equipped with ELC-10-00 electrode (MRC, Israel) and FIG. 2B presents pH values determined using an MP-103 pH-meter (MRC, Israel) equipped with a thin electrode HI1083 (HANNA instruments Inc.).

[3] = Oral teduglutide/SNAC/SSG mini-tablets in rats, plasma teduglutide by ELISA; format: in vivo, Sprague-Dawley rats; conditions: oral mini-tablets: 0.7 mg teduglutide (2.34 mg/Kg), 15 mg SNAC, 5.33 mg SSG, n=7
Description: In an exemplary in vivo rat model, the effect of SNAC, as an exemplary absorption enhancer, and SSG, as an exemplary alkaline polymer, on the oral bioavailability of teduglutide was tested.
A formulation was prepared with 0.7 mg teduglutide (2.34 mg/Kg), 15 mg SNAC, 0.2 mg stearate and 5.33 mg SSG. All substances were in a dry powder form and mixed geometrically. Afterwards, mini-tablets were prepared from the mixes using a 2 mm punch and die set at 1 ton/cm^2.
The study was conducted in 7 male Sprague-Dawley (SD) rats weighing about 299 grams (290-320 grams). Animals were deprived of food 12-15 hours prior to administration. Water supply was removed one hour before administration and returned one hour post-administration. The mini-tablets were administered by a flexible intragastric gavage with a tip adapted for solid dosage forms administration, without the aid of water. Blood samples were thereafter collected at pre-determined time points, the plasma was separated, and the plasma level of teduglutide was quantified by an ELISA kit for the detection of endogenous GLP-2 in plasma (Abcam, Cat. No. ab222863) according to manufacturer's method Version 7, upon required modifications.

[4] = teduglutide without the formulation; cited from earlier work
[5] = compared with endogenous GLP-2; cited from earlier work

Molecule: GLP-2: Human glucagon-like peptide-2, a 33-amino acid polypeptide produced by intestinal endocrine L cells
half-life in humans ([1]; human, in vivo): about 7 minutes

pH 5 minutes after dissolution ([2]; 10 mg/ml SNAC added to HCl solution (pH 1.2)): about 1.5
pH 5 minutes after dissolution ([2]; 20 mg/ml SNAC added to HCl solution (pH 1.2)): 6.5
pH 5 minutes after dissolution ([2]; 100 mg/ml SNAC added to HCl solution (pH 1.2)): about 7.5
Molecule: O=C(O)CCCCCCCNC(=O)c1ccccc1O [SNAC, sodium 8-N-(2-hydroxybenzoyl)aminocaprylate]

Molecule: CC[C@H](C)[C@H](NC(=O)[C@H](Cc1ccccc1)NC(=O)[C@H](CC(=O)O)NC(=O)[C@H](CCCNC(=N)N)NC(=O)[C@H](C)NC(=O)[C@H](C)NC(=O)[C@H](CC(C)C)NC(=O)[C@H](CC(N)=O)NC(=O)[C@H](CC(=O)O)NC(=O)[C@H](CC(C)C)NC(=O)[C@@H](NC(=O)[C@@H](NC(=O)[C@H](CC(N)=O)NC(=O)[C@H](CCSC)NC(=O)[C@H](CCC(=O)O)NC(=O)[C@H](CC(=O)O)NC(=O)[C@H](CO)NC(=O)[C@H](Cc1ccccc1)NC(=O)[C@H](CO)NC(=O)CNC(=O)[C@H](CC(=O)O)NC(=O)CNC(=O)[C@@H](N)Cc1c[nH]cn1)[C@@H](C)O)[C@@H](C)CC)C(=O)N[C@@H](CC(N)=O)C(=O)N[C@@H](Cc1c[nH]c2ccccc12)C(=O)N[C@@H](CC(C)C)C(=O)N[C@H](C(=O)N[C@@H](CCC(N)=O)C(=O)N[C@H](C(=O)N[C@@H](CCCCN)C(=O)N[C@H](C(=O)N[C@H](C(=O)N[C@@H](CC(=O)O)C(=O)O)[C@@H](C)O)[C@@H](C)CC)[C@@H](C)O)[C@@H](C)CC [teduglutide]
teduglutide plasma concentrations as a function of time [3]: enable oral delivery of teduglutide
half-life in humans ([1]; humans): about two hours
oral (PO) bioavailability [4]: negligible
stability to metabolic degradation [5]: significantly higher stability to metabolic degradation than the endogenous glucagon like peptide 2 (GLP-2)
